# US20080167297A1, “Pyrimidine Derivatives for Use as Anticancer Agents” (ASTRAZENECA AB, priority 2005, published 2008)
# Test system: murine fibroblasts (NIH3T3) over-expressing human IGF-1 receptor
# Assay: Test (c): inhibition of IGF-stimulated cell proliferation (BrdU incorporation)
# Type: cell-based
# Conditions: inhibition of IGF-stimulated proliferation in NIH3T3 over-expressing human IGF-1 receptor
# Method: The construction of murine fibroblasts (NIH3T3) over-expressing human IGF-1 receptor has been described by Lammers et al (EMBO J, 8, 1369-1375, 1989). These cells show a proliferative response to IGF-I which can be measured by BrdU incorporation into newly synthesised DNA. Compound potency was determined as causing inhibition of the IGF-stimulated proliferation in the following assay:
# Compounds are initially dissolved in DMSO to 10 mM, followed by dilutions in DMEM+1% FCS+glutamine to give a range from […] in 1-0.00045% DMSO final concentration in assay well.
# Exponentially growing NIH3T3/IGFR cells were harvested and seeded in complete growth medium into a flat-bottomed 96 well tissue culture grade plate (Costar 3525) at 1.2×10^4 cells per well in a volume of 100 μl.
# Growth medium was carefully removed from each well using a multi-channel pipette. Wells were carefully rinsed three times with 200 μl with HBSS. 100 μl of starvation medium was added to each well and the plate was re-incubated for 24 hours.
# 50 μl of a 4× concentrate of test compound was added to appropriate wells. Cells were incubated for 30 minutes with compound alone before the addition of IGF. For cells treated with IGF, an appropriate volume (i.e. 25 μl) of starvation medium was added to make a final volume per well up to 200 μl followed by 25 μl of IGF-1 at 160 ng/ml (to give a final concentration of 20 ng/ml). […] The plate was re-incubated for 20 hours.
# The incorporation of BrdU in the cells (after a 4 h incorporation period) was assessed using the BrdU Cell Proliferation Elisa according to the manufacturer's protocol.
row,Structure (SMILES),IC50 [µM]
1,"CCOc1nccnc1-c1cc([C@@H]2CCCN2c2nc(C)cc(Nc3cc(C)[nH]n3)n2)on1 [Example 1, S-2-[2-{3-(3-Ethoxypyrazin-2-yl)isoxazol-5-yl}pyrrolidin-1-yl]-6-methyl-4-(5-methyl-1H-pyrazol-3-ylamino)pyrimidine]",0.04
2,"Cc1cc(Nc2cc(C)[nH]n2)nc(N2CCC[C@H]2c2cc(-c3cccnc3C)no2)n1 [Example 3, S-2-[2-{3-(2-Methylpyrid-3-yl)isoxazol-5-yl}pyrrolidin-1-yl]-6-methyl-4-(5-methyl-1H-pyrazol-3-ylamino)pyrimidine]",0.006
3,"Cc1cc(Nc2cc(C)[nH]n2)nc(N2CCC[C@H]2c2cc(-c3cccnc3C#N)no2)n1 [Example 7, S-2-[2-{3-(2-Cyanopyrid-3-yl)isoxazol-5-yl}pyrrolidin-1-yl]-6-methyl-4-(5-methyl-1H-pyrazol-3-ylamino)pyrimidine]",0.004
